Reference: patent US20120115900A1, “SUBSTITUTED NAPHTHYRIDINE DERIVATIVES AND THEIR MEDICAL USE” (NEUROSEARCH A/S, priority 2009, published 2012)

How the values were obtained:
human Kv7.2+3 = target: T1, human Kv7.2+3 (Homo sapiens, UniProt O43525+O43526); assay: FLIPR-based characterization of Kv7.2+3 modulators (thallium (I) sensitive BTC fluorescence assay); type: cell-based; conditions: HEK293 cells over-expressing human Kv7.2+3, mean of at least two test runs; for EC50: Tl+ influx, FLIPR, 50% of channel activity compared to retigabine control responses; for Emax: maximal response relative to the reference (retigabine) response, read-out: Efficacy
T1 construct: expressed in transfected cells; host or cells: HEK293
Description: FLIPR-Based Characterization of Kv7.2+3 Modulators
This experiment determines the ability of a test compound to modulate the activity of Kv7.2+3 channels heterologously expressed in human HEK293 cells. The ability is determined relative to retigabine. The activity is determined using a standard thallium (I) sensitive assay, e.g. using a fluorometric method in a Fluorescent Image Plate Reader (FLIPR) as described below in more detail.
Full concentration/response curves are generated and EC50 values are calculated based on max values. EC50 values (Effective Concentration) represent the concentration of the test substance, at which 50% of the channel activity is obtained when compared to retigabine control responses. Maximal response determined relative to the reference (retigabine) response is calculated.
Human HEK293 cells over-expressing human Kv7.2+3 are grown in culture medium (DMEM supplemented with 10% foetal bovine serum), in polystyrene culture flasks ([…]) in a humidified atmosphere of 5% CO2 in air, at 37° C. Cell confluence should be 80-90% on day of plating. Cells are rinsed with 4 ml of PBS (phosphate buffered saline) and incubated 2 min with 1 ml of Trypsin-EDTA. After addition of 25 ml of culture medium cells are re-suspended by trituration with a 25 ml pipette.
The cells are seeded at a density of ˜3×10^6 cells/ml (25 μl/well) in blackwalled, clear bottom, 384-well plates pre-treated with 0.01 g/l poly-D-lysin (20 μl/well for ≧30 min). Plated cells were allowed to proliferate for 24 h before loading with dye.
BTC-AM (50 mg, Invitrogen) is added 25.5 μl DMSO. The BTC-AM stock solution (2 mM) is diluted to a final concentration of 2 μM in Cl^− free assay buffer (in mM: 140 Na^+-gluconate, 2.5 K^+-gluconate, 6 Ca2^+-gluconate, 1 Mg^2+gluconate, 5 glucose, 10 HEPES, pH 7.3) containing 2 μM ouabain, 2 mM amaranth and 1 mM tartrazine.
The culture medium is aspirated from the wells, the cells are washed thrice in Cl^− free assay buffer, and 25 μl of the BTC-AM loading solution is added to each well. The cells are incubated at 37° C. for 60 min.
After the loading period, the TI^+-sensitive BTC fluorescence signal is measured over time using a FLIPR.
• Temperature: Room temp. • First addition: 12 μl test or control compound after 15 sec at a rate of 30 μl/sec and starting height of 20 μl • Second addition: 12 μl stimulus buffer (Cl^− free assay buffer supplemented with 1 mM Tl2SO4, 5 mM K2SO4 as well as the quenchers amaranth (2 mM) and tartrazine (1 mM)) is added after an additional 3 minutes at a rate of 30 μl/sec and starting height of 30 μl • Reading intervals: First sequence—3 sec×5, 2 sec×24 and 5 sec×25 Second sequence—1 sec×5, 2 sec×24 and 5 sec×36 Addition plates (compound plate and stimulus plate) are placed in positions 2 and 3, respectively. Cell plates are placed in position 1 and run using the “KCNQ (two additions)” program. FLIPR will then take the appropriate measurements in accordance with the interval settings above. Fluorescence obtained after stimulation is corrected for the mean basal fluorescence (in Cl^− free assay buffer).
Full concentration/response curves are generated and EC50 values (“Effective Concentration”; the concentration at which 50% of the channel activity is obtained when compared to retigabine control responses) are calculated based on peak values. Maximal response determined relative to the reference (retigabine) response is calculated. Data are given as mean of at least two test runs

EC50 (human Kv7.2+3) | Emax (human Kv7.2+3) | melting point | Compound
67 nM | 96% | 203 to 206 °C | Cc1cc(N2CCc3ncccc3C2)nc(N2CCCC2)c1NC(=O)Cc1cc(F)cc(F)c1 [Compound 1.1, 2-(3,5-Difluoro-phenyl)-N-[6-(7,8-dihydro-5H-[1,6]naphthyridin-6-yl)-4-methyl-2-pyrrolidin-1-yl-pyridin-3-yl]-acetamide]
1200 nM | 121% | – | Cc1cc(N2CCc3ncccc3C2)nc(N2CCCC2)c1NC(=O)CC(C)(C)C [Compound 1.2, N-[6-(7,8-Dihydro-5H-[1,6]naphthyridin-6-yl)-4-methyl-2-pyrrolidin-1-yl-pyridin-3-yl]-3,3-dimethyl-butyramide]
5000 nM | 24% | – | Cc1cc(N2CCc3ncccc3C2)nc(N2CCCC2)c1NC(=O)c1cccc(F)c1 [Compound 1.3, N-[6-(7,8-Dihydro-5H-[1,6]naphthyridin-6-yl)-4-methyl-2-pyrrolidin-1-yl-pyridin-3-yl]-3-fluoro-benzamide]
85 nM | 101% | – | Cc1ccoc1C(=O)Nc1c(C)cc(N2CCc3ncccc3C2)nc1N1CC[C@@H](F)C1 [Compound 1.4, N-[6-(7,8-dihydro-5H-1,6-naphthyridin-6-yl)-2-[(3R)-3-fluoropyrrolidin-1-yl]-4-methyl-3-pyridyl]-3-methyl-furan-2-carboxamide]
190 nM | 101% | – | Cc1cc(N2CCc3ncccc3C2)nc(N2CC[C@@H](F)C2)c1NC(=O)Cc1cc(F)cc(F)c1 [Compound 1.5, 2-(3,5-difluorophenyl)-N-[6-(7,8-dihydro-5H-1,6-naphthyridin-6-yl)-2-[(3R)-3-fluoropyrrolidin-1-yl]-4-methyl-3-pyridyl]-acetamide]
19 nM | 81% | – | Cc1ccoc1C(=O)Nc1c(C)cc(N2CCc3ncccc3C2)nc1N1CCC(F)(F)CC1 [Compound 1.6, N-[2-(4,4-difluoro-1-piperidyl)-6-(7,8-dihydro-5H-1,6-naphthyridin-6-yl)-4-methyl-3-pyridyl]-3-methyl-furan-2-carboxamide]
220 nM | 104% | – | Cc1cc(N2CCc3ncccc3C2)nc(N2CCC(F)(F)CC2)c1NC(=O)Cc1cc(F)cc(F)c1 [Compound 1.7, 2-(3,5-difluorophenyl)-N-[2-(4,4-difluoro-1-piperidyl)-6-(7,8-dihydro-5H-1,6-naphthyridin-6-yl)-4-methyl-3-pyridyl]-acetamide]
1300 nM | 114% | – | Cc1cc(N2CCc3ncccc3C2)nc(N2CCC(F)(F)CC2)c1NC(=O)c1nccn1C [Compound 1.8, N-[2-(4,4-difluoro-1-piperidyl)-6-(7,8-dihydro-5H-1,6-naphthyridin-6-yl)-4-methyl-3-pyridyl]-1-methyl-imidazole-2-carboxamide]
50 nM | 105% | – | Cc1cc(N2CCc3ncccc3C2)nc(N2CCC(F)(F)CC2)c1NC(=O)c1ncoc1C [Compound 1.9, N-[2-(4,4-difluoro-1-piperidyl)-6-(7,8-dihydro-5H-1,6-naphthyridin-6-yl)-4-methyl-3-pyridyl]-5-methyl-oxazole-4-carboxamide]
6900 nM | 115% | – | Cc1cc(N2CCc3ncccc3C2)nc(N2CCC(F)(F)CC2)c1NC(=O)c1scnc1C [Compound 1.10, N-[2-(4,4-difluoro-1-piperidyl)-6-(7,8-dihydro-5H-1,6-naphthyridin-6-yl)-4-methyl-3-pyridyl]-4-methyl-thiazole-5-carboxamide]
1200 nM | 115% | – | Cc1cc(N2CCc3ncccc3C2)nc(N2CCC(F)(F)CC2)c1NC(=O)c1conc1C [Compound 1.11, N-[2-(4,4-difluoro-1-piperidyl)-6-(7,8-dihydro-5H-1,6-naphthyridin-6-yl)-4-methyl-3-pyridyl]-3-methyl-isoxazole-4-carboxamide]
65 nM | 100% | – | Cc1cc(N2CCc3ncccc3C2)nc(N2CCC(F)(F)CC2)c1NC(=O)c1ocnc1C [Compound 1.12, N-[2-(4,4-difluoro-1-piperidyl)-6-(7,8-dihydro-5H-1,6-naphthyridin-6-yl)-4-methyl-3-pyridyl]-4-methyl-oxazole-5-carboxamide]
1100 nM | 109% | – | Cc1cc(N2CCc3ncccc3C2)nc(N2CCC(F)(F)CC2)c1NC(=O)CC1CC1 [Compound 1.13, 2-cyclopropyl-N-[2-(4,4-difluoro-1-piperidyl)-6-(7,8-dihydro-5H-1,6-naphthyridin-6-yl)-4-methyl-3-pyridyl]-acetamide]
20 nM | 89% | – | CCc1ocnc1C(=O)Nc1c(C)cc(N2CCc3ncccc3C2)nc1N1CCC(F)(F)CC1 [Compound 1.14, N-[2-(4,4-difluoro-1-piperidyl)-6-(7,8-dihydro-5H-1,6-naphthyridin-6-yl)-4-methyl-3-pyridyl]-5-ethyl-oxazole-4-carboxamide]
2900 nM | 28% | – | Cc1cccnc1C(=O)Nc1c(C)cc(N2CCc3ncccc3C2)nc1N1CCC(F)(F)CC1 [Compound 1.15, N-[2-(4,4-difluoro-1-piperidyl)-6-(7,8-dihydro-5H-1,6-naphthyridin-6-yl)-4-methyl-3-pyridyl]-3-methyl-pyridine-2-carboxamide]
5400 nM | 116% | – | Cc1nc(C(=O)Nc2c(C)cc(N3CCc4ncccc4C3)nc2N2CCC(F)(F)CC2)c(C)o1 [Compound 1.16, N-[2-(4,4-difluoro-1-piperidyl)-6-(7,8-dihydro-5H-1,6-naphthyridin-6-yl)-4-methyl-3-pyridyl]-2,5-dimethyl-oxazole-4-carboxamide]
4600 nM | 90% | – | Cc1cc(N2CCc3ncccc3C2)nc(N2CCC(F)(F)CC2)c1NC(=O)c1ncoc1-c1ccccc1 [Compound 1.17, N-[2-(4,4-difluoro-1-piperidyl)-6-(7,8-dihydro-5H-1,6-naphthyridin-6-yl)-4-methyl-3-pyridyl]-5-phenyl-oxazole-4-carboxamide]
73 nM | 34% | – | Cc1cc(N2CCc3ncccc3C2)nc(N2CCC(F)(F)CC2)c1NC(=O)c1ncoc1C1CC1 [Compound 1.18, 5-cyclopropyl-N-[2-(4,4-difluoro-1-piperidyl)-6-(7,8-dihydro-5H-1,6-naphthyridin-6-yl)-4-methyl-3-pyridyl]oxazole-4-carboxamide]
5200 nM | 71% | – | Cc1cc(N2CCc3ncccc3C2)nc(N2CCC(F)(F)CC2)c1NC(=O)c1cnsc1C [Compound 1.19, N-[2-(4,4-difluoro-1-piperidyl)-6-(7,8-dihydro-5H-1,6-naphthyridin-6-yl)-4-methyl-3-pyridyl]-5-methyl-isothiazole-4-carboxamide]
280 nM | 100% | – | CCOC(=O)Nc1c(C)cc(N2CCc3ncccc3C2)nc1N1CCC(F)(F)CC1 [Compound 1.20, ethyl N-[2-(4,4-difluoro-1-piperidyl)-6-(7,8-dihydro-5H-1,6-naphthyridin-6-yl)-4-methyl-3-pyridyl]-carbamate]
